In the NIST ThermoML archive (doi:10.1021/je060371g):
± gives the expanded uncertainty stated by the source.

Details: Fluid (supercritical or subcritical phases), Buoyancy - hydrostatic balance with magnetic suspension - one sinker

FC(F)Cl [chlorodifluoromethane]
specific volume [m3/kg]
Details	298.2 K	323.2 K	348.2 K	373.2 K	423.2 K	473.2 K	523.2 K	573.2 K
10000 kPa	0.000815 ± 7e-06	0.00087 ± 7e-06	0.000955 ± 8e-06	0.001091 ± 1.4e-05	0.002006 ± 4.1e-05	0.003216 ± 6.8e-05	0.004117 ± 9.3e-05	0.004957 ± 0.00011
20000 kPa	0.000787 ± 6e-06	0.000831 ± 7e-06	0.000887 ± 7e-06	0.000967 ± 9e-06	0.001169 ± 2.2e-05	0.001531 ± 4.2e-05	0.001932 ± 5.6e-05	0.00244 ± 6.7e-05
30000 kPa	0.000771 ± 6e-06	0.00081 ± 7e-06	0.000852 ± 7e-06	0.000907 ± 8e-06	0.001037 ± 9e-06	0.00121 ± 1.3e-05	0.001431 ± 1.8e-05	0.001751 ± 2.5e-05
40000 kPa	0.000755 ± 6e-06	0.00079 ± 6e-06	0.000828 ± 7e-06	0.000875 ± 7e-06	0.000973 ± 8e-06	0.001089 ± 1e-05	0.001241 ± 1.2e-05	0.001393 ± 1.5e-05
50000 kPa	0.000743 ± 6e-06	0.000773 ± 6e-06	0.000807 ± 7e-06	0.000842 ± 7e-06	0.000923 ± 8e-06	0.001015 ± 8e-06	0.001126 ± 9e-06	0.001258 ± 1.1e-05
75000 kPa	0.000717 ± 6e-06	0.000743 ± 6e-06	0.000768 ± 6e-06	0.000797 ± 6e-06	0.000856 ± 7e-06	0.000922 ± 7e-06	0.000987 ± 8e-06	0.00105 ± 9e-06
100000 kPa	0.000698 ± 6e-06	0.000715 ± 6e-06	0.000742 ± 6e-06	0.000765 ± 6e-06	0.000814 ± 7e-06	0.000867 ± 7e-06	0.00092 ± 7e-06	0.000968 ± 8e-06
125000 kPa	0.000682 ± 5e-06	0.000699 ± 6e-06	0.000719 ± 6e-06	0.000741 ± 6e-06	0.000784 ± 6e-06	0.00083 ± 7e-06	0.000872 ± 7e-06	0.000911 ± 7e-06
150000 kPa	0.00067 ± 5e-06	0.000683 ± 5e-06	0.000701 ± 6e-06	0.000722 ± 6e-06	0.000759 ± 6e-06	0.000797 ± 6e-06	0.000835 ± 7e-06	0.00087 ± 7e-06
175000 kPa	0.000657 ± 5e-06	0.00067 ± 5e-06	0.000686 ± 6e-06	0.000705 ± 6e-06	0.000738 ± 6e-06	0.000772 ± 6e-06	0.000808 ± 7e-06	0.00084 ± 7e-06
200000 kPa	0.000646 ± 5e-06	0.00066 ± 5e-06	0.000674 ± 5e-06	0.000689 ± 6e-06	0.000721 ± 6e-06	0.000754 ± 6e-06	0.000785 ± 6e-06	0.000814 ± 7e-06
225000 kPa	0.000638 ± 5e-06	0.000651 ± 5e-06	0.000663 ± 5e-06	0.000677 ± 5e-06	0.000707 ± 6e-06	0.000735 ± 6e-06	0.000764 ± 6e-06	0.00079 ± 6e-06
250000 kPa	0.00063 ± 5e-06	0.000643 ± 5e-06	0.000655 ± 5e-06	0.000667 ± 5e-06	0.000695 ± 6e-06	0.00072 ± 6e-06	0.000744 ± 6e-06	0.000767 ± 6e-06
275000 kPa	0.000624 ± 5e-06	0.000635 ± 5e-06	0.000646 ± 5e-06	0.000658 ± 5e-06	0.000682 ± 5e-06	0.000705 ± 6e-06	0.000728 ± 6e-06	0.000749 ± 6e-06
300000 kPa	0.000617 ± 5e-06	0.000628 ± 5e-06	0.000639 ± 5e-06	0.00065 ± 5e-06	0.000673 ± 5e-06	0.000694 ± 6e-06	0.000714 ± 6e-06	0.000732 ± 6e-06
325000 kPa	0.000611 ± 5e-06	0.000621 ± 5e-06	0.000632 ± 5e-06	0.000642 ± 5e-06	0.000661 ± 5e-06	0.000683 ± 5e-06	0.000698 ± 6e-06	0.000717 ± 6e-06
350000 kPa	0.000606 ± 5e-06	0.000616 ± 5e-06	0.000625 ± 5e-06	0.000636 ± 5e-06	0.000655 ± 5e-06	0.000671 ± 5e-06	0.000687 ± 6e-06	0.000704 ± 6e-06
375000 kPa	0.0006 ± 5e-06	0.00061 ± 5e-06	0.000619 ± 5e-06	0.000629 ± 5e-06	0.000645 ± 5e-06	0.000661 ± 5e-06	0.000676 ± 5e-06	0.000692 ± 6e-06
400000 kPa	0.000596 ± 5e-06	0.000605 ± 5e-06	0.000614 ± 5e-06	0.000623 ± 5e-06	0.000638 ± 5e-06	0.000652 ± 5e-06	0.000666 ± 5e-06	0.00068 ± 5e-06
425000 kPa	0.000591 ± 5e-06	0.0006 ± 5e-06	0.000608 ± 5e-06	0.000617 ± 5e-06	0.000631 ± 5e-06	0.000644 ± 5e-06	0.000658 ± 5e-06	0.000671 ± 5e-06
450000 kPa	0.000587 ± 5e-06	0.000595 ± 5e-06	0.000603 ± 5e-06	0.000612 ± 5e-06	0.000625 ± 5e-06	0.000637 ± 5e-06	0.000649 ± 5e-06	0.000663 ± 5e-06
475000 kPa	0.000582 ± 5e-06	0.00059 ± 5e-06	0.000598 ± 5e-06	0.000606 ± 5e-06	0.000619 ± 5e-06	0.000629 ± 5e-06	0.00064 ± 5e-06	0.000651 ± 5e-06
500000 kPa	0.000579 ± 5e-06	0.000586 ± 5e-06	0.000594 ± 5e-06	0.000602 ± 5e-06	0.000614 ± 5e-06	0.000623 ± 5e-06	0.000633 ± 5e-06	0.000643 ± 5e-06
